# Measurements taken from article PMC10439028, “SGLT5 is the renal transporter for 1,5-anhydroglucitol, a major player in two rare forms of neutropenia” (Cellular and Molecular Life Sciences: CMLS, 2023).
# Entries after “also recorded” stand apart in the source; their conditions may differ.
# Tests used:
# [1] = target: T1, human SGLT4 (Homo sapiens, UniProt Q2M3M2); experiment: Radioactive uptake assay (saturation kinetics) in HEK293T cells stably overexpressing human SGLT4; type: cell-based
# T1 construct: expressed in transfected cells
# T1 sequence (Q2M3M2 1-681): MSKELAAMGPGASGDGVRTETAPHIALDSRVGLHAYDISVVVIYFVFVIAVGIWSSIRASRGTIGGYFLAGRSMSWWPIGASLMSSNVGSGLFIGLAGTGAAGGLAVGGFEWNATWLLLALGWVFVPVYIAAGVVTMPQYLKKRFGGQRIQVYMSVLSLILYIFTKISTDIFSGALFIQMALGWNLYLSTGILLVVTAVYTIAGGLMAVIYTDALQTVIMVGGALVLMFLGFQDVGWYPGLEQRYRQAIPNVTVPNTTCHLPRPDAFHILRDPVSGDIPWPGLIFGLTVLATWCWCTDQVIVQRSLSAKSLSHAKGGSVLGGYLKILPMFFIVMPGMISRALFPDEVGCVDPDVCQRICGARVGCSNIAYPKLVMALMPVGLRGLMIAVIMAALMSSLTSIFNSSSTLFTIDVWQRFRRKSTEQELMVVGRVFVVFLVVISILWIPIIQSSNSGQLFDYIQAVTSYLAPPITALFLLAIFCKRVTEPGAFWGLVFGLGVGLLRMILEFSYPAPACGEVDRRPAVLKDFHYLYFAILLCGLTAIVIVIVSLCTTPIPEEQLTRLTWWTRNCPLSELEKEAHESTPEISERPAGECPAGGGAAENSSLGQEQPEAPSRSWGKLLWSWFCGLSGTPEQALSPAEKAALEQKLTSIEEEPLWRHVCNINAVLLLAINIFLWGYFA
# Description: This assay was used to study (1) the transport of 1,5-AG or mannose by the HEK293T model cell lines that stably overexpressed the various transporters or by the transiently transfected HEK293T cells using JetPEI® as a transfection agent prepared as described above and (2) the substrate specificity of each transporter.
# (§1) For a typical transporter experiment we proceeded as follows. […] To minimize cell loss during the various washing steps in the radioactive uptake experiments, the wells where the cells were seeded were previously coated with poly- D-lysine, which improved their adhesion to the plastic surface of the wells. For this, each well of the 24-well plates was treated with 200 µl of a 0.01% poly-L-lysine solution for 10 min, washed 3 times with 1 ml of sterilized water and left to dry for 2 h. Only then could the 24-well plates be seeded with the appropriate cell lines and cultured overnight at 37 °C in 5% CO2.
# On day two, the radioactive uptake assay could be performed. The cell culture media was removed by aspiration and cells were incubated for 20 min at 37 °C and 5% CO2 with a basal medium (10 mM HEPES, pH 7.4, 1 mM CaCl2, 1 mM MgCl2, 2 mM KCl) containing 140 mM choline chloride to deplete intracellular […] ions. This was subsequently replaced with the uptake medium (basal medium + 140 mM NaCl, 25 μM cytochalasin B, 1 mg/ml BSA) containing either radioactive U-[^14C]-mannose (15,000 cpm/well) or 2-[^3H]-1,5-AG (30,000 cpm/well) and respectively, non-radioactive mannose or 1,5-AG, at the required concentration in the experiment. […]
# (§2) Once the uptake medium was added to the cells, the plates were incubated at 37 °C in 5% CO2 during the required time. […] In each experiment, the transport activities were calculated after subtracting a “blank” value, corresponding to the radioactivity in the appropriate control cells (HEK293T cells that were stably or transiently transfected with one of the parent plasmids pEF6/MycHisA, pEF6HisB, pUB82 or pUB83 with no inserted cDNA) that were analyzed in parallel.
# [2] = target: T1, human SGLT4; experiment: Inhibition of 10 µM radiolabelled mannose transport in HEK293T cells overexpressing human SGLT4; type: cell-based; settings: substrate 10 μM mannose
# Description: as §1
# On day two, the radioactive uptake assay could be performed. The cell culture media was removed by aspiration and cells were incubated for 20 min at 37 °C and 5% CO2 with a basal medium (10 mM HEPES, pH 7.4, 1 mM CaCl2, 1 mM MgCl2, 2 mM KCl) containing 140 mM choline chloride to deplete intracellular […] ions. This was subsequently replaced with the uptake medium (basal medium + 140 mM NaCl, 25 μM cytochalasin B, 1 mg/ml BSA) containing either radioactive U-[^14C]-mannose (15,000 cpm/well) or 2-[^3H]-1,5-AG (30,000 cpm/well) and respectively, non-radioactive mannose or 1,5-AG, at the required concentration in the experiment. Importantly, when measuring the transport of mannose, the uptake media also contained 0.5 mM glucose. This resulted from the need to reduce the background transport of mannose in control HEK293T cells in order to optimize the transport assay for this sugar in our model cell lines. Consequently, after testing various inhibitors (Supplementary Fig. 1), 0.5 mM glucose + 25 µM cytochalasin B appeared as the best combination to decrease efficiently the endogenous transport of mannose in control cells without affecting the transport of mannose in model cell lines overexpressing SGLT4 and SGLT5. Therefore in the radioactive uptake assays for mannose, the uptake medium was: basal uptake medium + 140 mM NaCl, 25 μM cytochalasin B, 0.5 mM glucose and 1 mg/ml BSA to which we added U-[^12C + ^14C]-mannose as described above.
# as §2
# The transport experiments to study the specificity of SGLT4 or SGLT5, were performed in the presence of 10 µM U-[^14C + ^12C]-mannose (for SGLT4) or 2-[^3H + ^1H]-1,5-AG (for SGLT5) and increasing concentrations of various sugars tested. The transport experiments to study the inhibition of empagliflozin, dapagliflozin or remogliflozin, on the transport of 1,5-AG by SGLT5 or its variants were performed in the presence of 10 µM 2-[^3H + ^1H]-1,5-AG and increasing concentrations of the various gliflozins tested.
SMILES,"transport of 1,5-AG by human SGLT4 ([1]; concentrations in the physiological range)",hSGLT4 inhibition with 10 mM inhibitor ([2]; 10 mM inhibitor),SGLT4 better than SGLT5 to transport mannose ([1]; assuming similar expression of the transporters in the cell lines),"hSGLT4 Vmax ([1]; transport of the labelled substrate, Fig. 2B)","IC50 ([2]; Fig. 3C, read-out: hSGLT4 IC50)"
"OC[C@H]1OC[C@H](O)[C@@H](O)[C@@H]1O [1,5-AG, 1,5-anhydroglucitol]",does not transport; also recorded: undetectable,no inhibition,,,
"OC[C@H]1OC(O)[C@@H](O)[C@@H](O)[C@@H]1O (some centres unmarked) [Mannose, mannose]",,,approximately tenfold better,16.6 ± 0.5 pmol/min/10^5 cells,125 µM
